Measurements taken from ChEMBL document CHEMBL1132139, “2-Naphthylcarbapenems: broad spectrum antibiotics with enhanced potency against MRSA” (1999).
Converted amounts (≈) assume the structure as drawn.

Key:
Pseudomonas aeruginosa [1] = test: Compound was evaluated for the antibacterial activity against Pseudomonas aeruginosa as fold improvement in activity with respect to imipenem.; assay type: functional
Enterococcus [2] = test: Compound was evaluated for the antibacterial activity against Enterococcus as fold improvement in activity with respect to imipenem.; assay type: functional
Serratia [3] = test: Compound was evaluated for the antibacterial activity against Serratia as fold improvement in activity with respect to imipenem.; assay type: functional
Proteus [4] = test: Compound was evaluated for the antibacterial activity against Proteus as fold improvement in activity with respect to imipenem.; assay type: functional, Proteus sp.
[5] = Compound was evaluated for the antibacterial activity against methicillin-resistant coagulase-negative staphylococci (MRCNS)as fold improvement in activity with respect to imipenem.; assay type: functional, Staphylococcus […]
Enterobacter [6] = test: Compound was evaluated for the antibacterial activity against Enterobacter as fold improvement in activity with respect to imipenem.; assay type: functional
Staphylococcus aureus [7] = test: Compound was evaluated for the antibacterial activity against methicillin-resistant Staphylococcus aureus (MRSA)as fold improvement in activity with respect to imipenem.; assay type: functional
Staphylococcus aureus [8] = test: Compound was evaluated for the antibacterial activity against methicillin-sensitive Staphylococcus aureus (MSSA)as fold improvement in activity with respect to imipenem.; assay type: functional
Klebsiella [9] = test: Compound was evaluated for the antibacterial activity against Klebsiella.8 as fold improvement in activity with respect to imipenem.; assay type: functional
[10] = target: T1, Dipeptidase 1 (Sus scrofa) (UniProt P22412); test: Dehydropeptidase-1 susceptibility.
T1 sequence (whole entry): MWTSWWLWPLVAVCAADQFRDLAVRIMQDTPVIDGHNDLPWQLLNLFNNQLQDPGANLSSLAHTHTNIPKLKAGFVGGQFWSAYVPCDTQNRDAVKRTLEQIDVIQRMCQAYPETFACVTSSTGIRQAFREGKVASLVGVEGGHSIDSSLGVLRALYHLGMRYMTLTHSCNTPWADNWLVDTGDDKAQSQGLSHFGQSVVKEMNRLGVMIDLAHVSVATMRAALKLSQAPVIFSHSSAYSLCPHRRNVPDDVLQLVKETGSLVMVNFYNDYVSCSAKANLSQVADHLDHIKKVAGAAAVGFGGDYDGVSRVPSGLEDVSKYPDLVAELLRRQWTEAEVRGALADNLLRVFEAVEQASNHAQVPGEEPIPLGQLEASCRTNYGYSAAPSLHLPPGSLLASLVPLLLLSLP

Escherichia coli [11] = test: Compound was evaluated for the antibacterial activity against Escherichia coli as fold improvement in activity with respect to imipenem.; assay type: functional
Enterococcus [12] = test: Compound was evaluated for the antibacterial activity against Enterococcus.; assay type: functional
Proteus [13] = test: Compound was evaluated for the antibacterial activity against Proteus; assay type: functional, Proteus sp.
Staphylococcus aureus [14] = test: Compound was evaluated for the anti-MRSA activity as MIC50; assay type: functional
Klebsiella [15] = test: Compound was evaluated for the antibacterial activity against Klebsiella.8.; assay type: functional
Staphylococcus aureus [16] = test: Compound was evaluated for the anti-MRSA activity as MIC90.; assay type: functional
Staphylococcus aureus [17] = test: Compound was evaluated for the antibacterial activity against methicillin-resistant Staphylococcus aureus (MRSA).; assay type: functional
Staphylococcus aureus [18] = test: Compound was evaluated for the antibacterial activity against methicillin-resistant coagulase-negative staphylococci (MRCNS).; assay type: functional
Enterobacter [19] = test: Compound was evaluated for the antibacterial activity against Enterobacter.; assay type: functional
Escherichia coli [20] = test: Compound was evaluated for the antibacterial activity against Escherichia coli.; assay type: functional
[21] = system: coagulase-negative Staphylococcus; test: Compound was evaluated for the anti-MRCNS activity as MIC50.
Staphylococcus aureus [22] = test: Compound was evaluated for the antibacterial activity against methicillin-sensitive Staphylococcus aureus (MSSA).; assay type: functional
Pseudomonas aeruginosa [23] = test: Compound was evaluated for the antibacterial activity against Pseudomonas aeruginosa.; assay type: functional
Serratia [24] = test: Compound was evaluated for the antibacterial activity against Serratia.; assay type: functional
Klebsiella [25] = test: Compound was evaluated for the antibacterial activity against Klebsiella as fold improvement in activity with respect to imipenem.; assay type: functional

| SMILES | Activity (Pseudomonas aeruginosa [1]) | Activity (Enterococcus [2]) | Activity (Serratia [3]) | Activity (Proteus [4]) | Activity [5] | Activity (Enterobacter [6]) | Activity (Staphylococcus aureus [7]) | Activity (Staphylococcus aureus [8]) | Activity (Klebsiella [9]) | Activity [10] | Activity (Escherichia coli [11]) | MIC50 (Staphylococcus aureus [14]) [µg/mL] | MIC90 (Staphylococcus aureus [16]) [µg/mL] | MIC50 [21] [µg/mL] | also measured |
| --- | --- | --- | --- | --- | --- | --- | --- | --- | --- | --- | --- | --- | --- | --- | --- |
| C[C@@H](O)[C@H]1C(=O)N2C(C(=O)[O-])=C(c3ccc4cccc(C[n+]5ccccc5N)c4c3)C[C@H]12 | 0.02 | 2.1 | 0.05 | 0.22 | 8 | 0.01 | 4.9 | 0.1 | 0.03 | 0 | 0.04 | – | – | – | – |
| C[C@@H](O)[C@H]1C(=O)N2C(C(=O)O)=C(SCCNC=N)C[C@H]12 [IMIPENEM ANHYDROUS] | – | – | – | – | – | – | – | – | – | 1 | – | 32 (≈ 107 µM) | 64 (≈ 214 µM) | 128 (≈ 428 µM) | MIC (Enterococcus [12]): 1.8 µg/mL (≈ 6.01 µM); MIC (Proteus [13]): 0.69 µg/mL (≈ 2.3 µM); MIC (Klebsiella [15]): 0.29 µg/mL (≈ 0.969 µM); MIC (Staphylococcus aureus [17]): 33 µg/mL (≈ 110 µM); MIC (Staphylococcus aureus [18]): 70 µg/mL (≈ 234 µM); MIC (Enterobacter [19]): 0.18 µg/mL (≈ 0.601 µM); MIC (Escherichia coli [20]): 0.19 µg/mL (≈ 0.635 µM); MIC (Staphylococcus aureus [22]): 0.01 µg/mL (≈ 0.0334 µM); MIC (Pseudomonas aeruginosa [23]): 0.36 µg/mL (≈ 1.2 µM); MIC (Serratia [24]): 0.29 µg/mL (≈ 0.969 µM) |
| C[C@H](O)[C@H]1C(=O)N2C(C(=O)[O-])=C(c3cc(C[n+]4ccc(N)cc4)c4ccccc4c3)C[C@H]12 | 0.01 | 2.2 | 0.02 | 0.19 | 24 | 0.02 | 11 | 0.42 | 0.02 | 0.01 | 0.06 | – | – | – | – |
| C[C@@H](O)[C@H]1C(=O)N2C(C(=O)[O-])=C(c3ccc4cccc(C[n+]5ccc(N)cc5)c4c3)C[C@H]12 | 0.01 | 2.4 | 0.07 | 0.48 | 40 | 0.03 | 20 | 0.15 | 0.04 | 0.01 | 0.09 | 8 (≈ 18.6 µM) | 8 (≈ 18.6 µM) | 16 (≈ 37.3 µM) | – |
| C[C@@H](O)[C@H]1C(=O)N2C(C(=O)[O-])=C(c3ccc4ccc(C[n+]5ccc(N)cc5)cc4c3)C[C@H]12 | 0.01 | 4.9 | 0.97 | 3.2 | 55 | 0.17 | 16 | 0.53 | 0.25 | 0.07 | 0.33 | – | – | – | – |
| C[C@@H](O)[C@H]1C(=O)N2C(C(=O)[O-])=C(c3ccc(C[n+]4ccccc4N)cc3)C[C@H]12 | 0.02 | 12.9 | 4.4 | 4.2 | 1.6 | 3 | 2 | 0.5 | 1.1 | 0.11 | 1.7 | – | – | – | – |
| CN[C@H](CC(C)C)C(=O)N[C@H]1C(=O)N[C@@H](CC(N)=O)C(=O)N[C@H]2C(=O)N[C@H]3C(=O)N[C@H](C(=O)N[C@H](C(=O)O)c4cc(O)cc(O)c4-c4cc3ccc4O)[C@H](O)c3ccc(c(Cl)c3)Oc3cc2cc(c3O[C@@H]2O[C@H](CO)[C@@H](O)[C@H](O)[C@H]2O[C@H]2C[C@](C)(N)[C@H](O)[C@H](C)O2)Oc2ccc(cc2Cl)[C@H]1O [VANCOMYCIN] | – | – | – | – | – | – | – | – | – | – | – | 2 (≈ 1.38 µM) | 2 (≈ 1.38 µM) | 4 (≈ 2.76 µM) | – |
| C[C@@H](O)[C@H]1C(=O)N2C(C(=O)[O-])=C(c3ccc4cc(C[n+]5ccccc5N)ccc4c3)C[C@H]12 | 0.02 | 4.4 | 2 | 5 | 323 | 0.85 | 28 | 0.39 | 0.38 | 0.2 | 1.4 | 2 (≈ 4.66 µM) | 4 (≈ 9.31 µM) | 8 (≈ 18.6 µM) | – |
| C[C@H](O)[C@H]1C(=O)N2C(C(=O)[O-])=C(c3cccc(-c4ccc(C[n+]5ccccc5N)cc4)c3)C[C@H]12 | 0.01 | 6.2 | 0.11 | 0.38 | 232 | 0.04 | 154 | 0.43 | 0.04 | 0.04 | 0.11 | 1 (≈ 2.2 µM) | 2 (≈ 4.39 µM) | 2 (≈ 4.39 µM) | – |
| C[C@@H](O)[C@H]1C(=O)N2C(C(=O)[O-])=C(c3ccc4cc(C[n+]5ccc(N)cc5)ccc4c3)C[C@H]12 | 0.02 | 2.7 | 1.8 | 10 | 77 | 0.92 | 18 | 0.45 | – | 0.26 | 1.4 | 4 (≈ 9.31 µM) | 8 (≈ 18.6 µM) | 8 (≈ 18.6 µM) | Activity (Klebsiella [25]): 0.4 |
| C[C@H](O)[C@H]1C(=O)N2C(C(=O)[O-])=C(c3cc(C[n+]4ccccc4N)c4ccccc4c3)C[C@H]12 | 0.01 | 2.2 | 0.02 | 0.1 | 1.9 | 0.01 | 1.4 | 0.13 | 0.02 | 0.01 | 0.04 | – | – | – | – |
| CC(O)C1C(=O)N2C(C(=O)O)=C(c3ccc4ccccc4c3)CC12 (configuration not stated) | 0.01 | 2.6 | 0.09 | 2.8 | 2.7 | 0.1 | 3.3 | 0.5 | 0.08 | 0.09 | 0.31 | – | – | – | – |
| C[C@@H](O)[C@H]1C(=O)N2C(C(=O)[O-])=C(c3ccc4cc(C[n+]5cccc(N)c5)ccc4c3)C[C@H]12 | 0.02 | 2.3 | 3 | 6.5 | 44 | 0.64 | 13 | 0.53 | 0.43 | 0.15 | 1.3 | – | – | – | – |
| C[C@@H](O)[C@H]1C(=O)N2C(C(=O)[O-])=C(c3cc(C[n+]4cccc(N)c4)c4ccccc4c3)C[C@H]12 | 0.01 | 3.2 | 0.03 | 0.13 | 12 | 0.02 | 6.9 | 0.39 | 0.01 | 0.01 | 0.09 | – | – | – | – |
| C[C@@H](O)[C@H]1C(=O)N2C(C(=O)[O-])=C(c3ccc4c(C[n+]5ccc(N)cc5)cccc4c3)C[C@H]12 | 0.02 | 2.7 | 0.69 | 15 | 77 | 0.18 | 12 | 0.42 | 0.21 | 0.03 | 0.4 | – | – | – | – |
